The values that follow are results of earlier work, collected in patent US4178376A, “Method for inducing rapid therapeutically effective antimalarial levels of certain selected conventional antimalarials” (Interx Research Corporation, priority 1977, dated 1979).

The conditions of the data set: water.

For `CCCCN(CCCC)CCC(O)c1cc(-c2ccc(C(F)(F)F)cc2)nc(-c2ccc(C(F)(F)F)cc2)c1` (centres unmarked) [3-Dibutylamino-1-[2,6-bis(4-trifluoromethylphenyl)-4-pyridyl] propanol], the aqueous solubility result is reported as “approximately 7.0 mg per liter of water”.

Take `CCCCN(CCCC)CC(O)c1cc(-c2ccc(Cl)c(Cl)c2)nc2c(Cl)cc(Cl)cc12` (centres unmarked) [Compound I]: the aqueous solubility entry was “approximately 1.0 mg per liter of water”.
